Measured values from US20110200535A1, “DAA-PYRIDINE AS PERIPHERAL BENZODIAZEPINE RECEPTOR LIGAND FOR DIAGNOSTIC IMAGING AND PHARMACEUTICAL TREATMENT” (BAYER SCHERING PHARMA AKTIENGESELLSCHAFT, priority 2008, published 2011).
Several values for one entry are separate records, joined by “and”; a condition that tells them apart may be missing. Equal values may be shown once.

Columns and labels:
Assay type in all cases: in vivo
[1] = Excretion of [^18F]-radioactivity via urine and faeces in normal mice (gamma counter); conditions: i.v., decay corrected
Experimental: (§1) The biodistribution of [^18F]-2d and [^18F]-5d was investigated in healthy male NMRI mice (28.3-35.6 g body weight, n=3 animals per time point) at 2, 5, 30, 60 and 180/240 min after intravenous injection of 0.264 MBq [^18F]-2d and 0.268 MBq [^18F]-5d per animal, respectively. Until the indicated time points urine and faeces were quantitatively collected. At the respective time points the mice were sacrificed and the tissues were removed. [^18F]-radioactivity was analyzed in a gamma counter (Tab. 1.1, 2.1 and 1.2, 2.2).

[2] = molecular target: T1, peripheral benzodiazepine receptor (PBR) (Rattus norvegicus, UniProt P16257); experiment: Ex vivo autoradiography of brain sections, rat kainic acid induced epilepsy model; conditions: for Hipp/Cereb ratio (signal-to-background ratio, hippocampus/cerebellum): rat kainic acid model, 30 min ex vivo autoradiography
T1 construct: from tissue; host or cells: rat brain (hippocampus, cerebellum) after i.v. tracer injection
Experimental: Using a rat kainic acid induced epilepsy model and respective sham controls the accumulation of [^18F]-2d and [^18F]-5d was visualized ex vivo. In brief, epilepsy was induced in rats by injecting kainic acid i.p. At day eight after the start of the kainic acid treatment [^18F]-2d and [^18F]-5d were injected into the tail vein of the rats and their sham treated controls (PBS instead of kainic acid) at a dose of 25.8-35.8 MBq (approximately 1.0 μg) per rat. Thirty minutes after intravenous injection the rats were sacrificed, the brains were taken out, snap frozen and sliced transversally in a cryostat. The slices were exposed to PhosphoImager plates over night. The resulting autoradiographic signals were analyzed qualitatively and quantitatively (FIG. 2.1 A and C, 2.2 A and C). […] To determine the specificity of the [^18F]-2d and [^18F]-5d binding, kainic acid treated rats were co-injected with [^19F]-2e and [^19F]-5e, respectively.
The autoradiographic signals were quantified. The signal intensity in a hippocampal region of interest (ROI) was measured and compared to a ROI in the cerebellum, that was used as reference region.

[3] = Biodistribution of [^18F]-radioactivity in healthy male NMRI mice after intravenous injection (gamma counter); conditions: for Elimination from mouse brain, 2 min/30 min ratio of brain uptake (% ID/g): 2 min to 30 min; for [^18F]-radioactivity in adrenals / [^18F]-radioactivity in blood / [^18F]-radioactivity in bone / [^18F]-radioactivity in brain (brain uptake) / [^18F]-radioactivity in fat / [^18F]-radioactivity in heart / [^18F]-radioactivity in intestine / [^18F]-radioactivity in kidney / [^18F]-radioactivity in liver / [^18F]-radioactivity in lung / [^18F]-radioactivity in muscle / [^18F]-radioactivity in pancreas / [^18F]-radioactivity in skin / [^18F]-radioactivity in spleen / [^18F]-radioactivity in stomach / [^18F]-radioactivity in testes / [^18F]-radioactivity in thyroid: normal mice, i.v., decay corrected
Experimental: as §1

COc1ccc(Oc2ncccc2N(Cc2cc(OC)ccc2OCC[18F])C(C)=O)cc1 [[^18F]-2d, N-[2-(2-[^18F]fluoroethoxy)-5-methoxybenzyl]-N-[2-(4-methoxyphenoxy)pyridin-3-yl]acetamide]
Excretion of [^18F]-radioactivity via faeces ([1]; 2 min): 0.00 ± 0.00 % injected dose
Excretion of [^18F]-radioactivity via urine ([1]; 2 min): 0.02 ± 0.01 % injected dose
Excretion of [^18F]-radioactivity via faeces ([1]; 5 min): 0.02 ± 0.03 % injected dose
Excretion of [^18F]-radioactivity via urine ([1]; 5 min): 0.02 ± 0.01 % injected dose
Excretion of [^18F]-radioactivity via faeces ([1]; 30 min): 0.01 ± 0.00 % injected dose
Excretion of [^18F]-radioactivity via urine ([1]; 30 min): 1.72 ± 0.08 % injected dose
Excretion of [^18F]-radioactivity via faeces ([1]; 60 min): 0.03 ± 0.03 % injected dose
Excretion of [^18F]-radioactivity via urine ([1]; 60 min): 4.21 ± 0.39 % injected dose
Excretion of [^18F]-radioactivity via faeces ([1]; 180 min): 0.59±0.61 % injected dose
Excretion of [^18F]-radioactivity via urine ([1]; 180 min): 13.09±1.33 % injected dose
Specificity of binding: autoradiographic signal on co-injection of the corresponding [^19F] compound ([2]; kainic acid treated rats, co-injected with [^19F]-2e and [^19F]-5e, respectively): significantly reduced autoradiographic signal
Hipp/Cereb ratio (signal-to-background ratio, hippocampus/cerebellum) [2]: 5.6 ± 1.8
Initial elimination of the radioactivity from the brain ([3]; mice, 30 min p.i.): ca. 72%
Elimination from mouse brain, 2 min/30 min ratio of brain uptake (% ID/g) ([3]; mice): 3.7
[^18F]-radioactivity in adrenals ([3]; 2 min): 7.37 ± 2.53 % injected dose/g
[^18F]-radioactivity in blood ([3]; 2 min): 2.35 ± 0.15 % injected dose/g
[^18F]-radioactivity in bone ([3]; 2 min): 0.87 ± 0.11 % injected dose/g
[^18F]-radioactivity in brain (brain uptake) ([3]; 2 min): 1.37±0.04 % injected dose/g
[^18F]-radioactivity in fat ([3]; 2 min): 0.41 ± 0.49 % injected dose/g
[^18F]-radioactivity in heart ([3]; 2 min): 16.53 ± 0.48 % injected dose/g
[^18F]-radioactivity in intestine ([3]; 2 min): 0.82 ± 0.04 % injected dose/g
[^18F]-radioactivity in kidney ([3]; 2 min): 5.92 ± 1.40 % injected dose/g
[^18F]-radioactivity in liver ([3]; 2 min): 1.20 ± 0.28 % injected dose/g
[^18F]-radioactivity in lung ([3]; 2 min): 61.50 ± 10.42 % injected dose/g
[^18F]-radioactivity in muscle ([3]; 2 min): 1.23 ± 0.47 % injected dose/g
[^18F]-radioactivity in pancreas ([3]; 2 min): 1.91 ± 0.33 % injected dose/g
[^18F]-radioactivity in skin ([3]; 2 min): 0.51 ± 0.14 % injected dose/g
[^18F]-radioactivity in spleen ([3]; 2 min): 1.50 ± 0.20 % injected dose/g
[^18F]-radioactivity in stomach ([3]; 2 min): 2.15 ± 1.25 % injected dose/g
[^18F]-radioactivity in testes ([3]; 2 min): 0.48 ± 0.10 % injected dose/g
[^18F]-radioactivity in thyroid ([3]; 2 min): 2.15 ± 1.49 % injected dose/g
[^18F]-radioactivity in adrenals ([3]; 5 min): 10.39 ± 3.44 % injected dose/g
[^18F]-radioactivity in blood ([3]; 5 min): 1.44 ± 0.07 % injected dose/g
[^18F]-radioactivity in bone ([3]; 5 min): 1.30 ± 0.02 % injected dose/g
[^18F]-radioactivity in brain (brain uptake) ([3]; 5 min): 0.95 ± 0.07 % injected dose/g
[^18F]-radioactivity in fat ([3]; 5 min): 0.25 ± 0.06 % injected dose/g
[^18F]-radioactivity in heart ([3]; 5 min): 17.09 ± 0.64 % injected dose/g
[^18F]-radioactivity in intestine ([3]; 5 min): 1.36 ± 0.33 % injected dose/g
[^18F]-radioactivity in kidney ([3]; 5 min): 7.45 ± 1.00 % injected dose/g
[^18F]-radioactivity in liver ([3]; 5 min): 1.41 ± 0.26 % injected dose/g
[^18F]-radioactivity in lung ([3]; 5 min): 34.75 ± 6.56 % injected dose/g
[^18F]-radioactivity in muscle ([3]; 5 min): 1.58 ± 0.52 % injected dose/g
[^18F]-radioactivity in pancreas ([3]; 5 min): 2.23 ± 0.60 % injected dose/g
[^18F]-radioactivity in skin ([3]; 5 min): 0.60 ± 0.11 % injected dose/g
[^18F]-radioactivity in spleen ([3]; 5 min): 4.78 ± 0.73 % injected dose/g
[^18F]-radioactivity in stomach ([3]; 5 min): 1.89 ± 1.77 % injected dose/g
[^18F]-radioactivity in testes ([3]; 5 min): 0.50 ± 0.15 % injected dose/g
[^18F]-radioactivity in thyroid ([3]; 5 min): 2.65 ± 0.58 % injected dose/g
[^18F]-radioactivity in adrenals ([3]; 30 min): 15.51 ± 0.48 % injected dose/g
[^18F]-radioactivity in blood ([3]; 30 min): 0.70 ± 0.14 % injected dose/g
[^18F]-radioactivity in bone ([3]; 30 min): 1.67 ± 0.32 % injected dose/g
[^18F]-radioactivity in brain (brain uptake) ([3]; 30 min): 0.37±0.04 % injected dose/g
[^18F]-radioactivity in fat ([3]; 30 min): 0.46 ± 0.10 % injected dose/g
[^18F]-radioactivity in heart ([3]; 30 min): 7.94 ± 1.52 % injected dose/g
[^18F]-radioactivity in intestine ([3]; 30 min): 2.15 ± 0.62 % injected dose/g
[^18F]-radioactivity in kidney ([3]; 30 min): 10.99 ± 1.08 % injected dose/g
[^18F]-radioactivity in liver ([3]; 30 min): 1.61 ± 0.43 % injected dose/g
[^18F]-radioactivity in lung ([3]; 30 min): 10.66 ± 0.71 % injected dose/g
[^18F]-radioactivity in muscle ([3]; 30 min): 1.80 ± 0.17 % injected dose/g
[^18F]-radioactivity in pancreas ([3]; 30 min): 2.85 ± 0.03 % injected dose/g
[^18F]-radioactivity in skin ([3]; 30 min): 0.98 ± 0.06 % injected dose/g
[^18F]-radioactivity in spleen ([3]; 30 min): 6.98 ± 0.82 % injected dose/g
[^18F]-radioactivity in stomach ([3]; 30 min): 3.49 ± 0.45 % injected dose/g
[^18F]-radioactivity in testes ([3]; 30 min): 0.79 ± 0.11 % injected dose/g
[^18F]-radioactivity in thyroid ([3]; 30 min): 3.95 ± 0.81 % injected dose/g
[^18F]-radioactivity in adrenals ([3]; 60 min): 23.01 ± 8.20 % injected dose/g
[^18F]-radioactivity in blood ([3]; 60 min): 0.60 ± 0.09 % injected dose/g
[^18F]-radioactivity in bone ([3]; 60 min): 1.75 ± 0.09 % injected dose/g
[^18F]-radioactivity in brain (brain uptake) ([3]; 60 min): 0.34 ± 0.02 % injected dose/g
[^18F]-radioactivity in fat ([3]; 60 min): 0.49 ± 0.06 % injected dose/g
[^18F]-radioactivity in heart ([3]; 60 min): 5.22 ± 0.61 % injected dose/g
[^18F]-radioactivity in intestine ([3]; 60 min): 2.33 ± 0.34 % injected dose/g
[^18F]-radioactivity in kidney ([3]; 60 min): 11.04 ± 0.48 % injected dose/g
[^18F]-radioactivity in liver ([3]; 60 min): 1.56 ± 0.22 % injected dose/g
[^18F]-radioactivity in lung ([3]; 60 min): 6.31 ± 0.34 % injected dose/g
[^18F]-radioactivity in muscle ([3]; 60 min): 2.34 ± 0.23 % injected dose/g
[^18F]-radioactivity in pancreas ([3]; 60 min): 2.56 ± 0.26 % injected dose/g
[^18F]-radioactivity in skin ([3]; 60 min): 1.14 ± 0.06 % injected dose/g
[^18F]-radioactivity in spleen ([3]; 60 min): 6.09 ± 0.50 % injected dose/g
[^18F]-radioactivity in stomach ([3]; 60 min): 4.37 ± 0.51 % injected dose/g
[^18F]-radioactivity in testes ([3]; 60 min): 0.84 ± 0.09 % injected dose/g
[^18F]-radioactivity in thyroid ([3]; 60 min): 3.88 ± 0.10 % injected dose/g
[^18F]-radioactivity in adrenals ([3]; 180 min): 13.74 ± 7.36 % injected dose/g
[^18F]-radioactivity in blood ([3]; 180 min): 0.66 ± 0.09 % injected dose/g
[^18F]-radioactivity in bone ([3]; 180 min): 2.3 % injected dose/g and 2.25 ± 0.20 % injected dose/g
[^18F]-radioactivity in brain (brain uptake) ([3]; 180 min): 0.35 ± 0.02 % injected dose/g
[^18F]-radioactivity in fat ([3]; 180 min): 2.02 ± 1.06 % injected dose/g
[^18F]-radioactivity in heart ([3]; 180 min): 2.78 ± 0.18 % injected dose/g
[^18F]-radioactivity in intestine ([3]; 180 min): 4.28 ± 0.94 % injected dose/g
[^18F]-radioactivity in kidney ([3]; 180 min): 10.63 ± 1.41 % injected dose/g
[^18F]-radioactivity in liver ([3]; 180 min): 1.29 ± 0.20 % injected dose/g
[^18F]-radioactivity in lung ([3]; 180 min): 4.57 ± 1.44 % injected dose/g
[^18F]-radioactivity in muscle ([3]; 180 min): 1.84 ± 0.29 % injected dose/g
[^18F]-radioactivity in pancreas ([3]; 180 min): 1.76 ± 0.40 % injected dose/g
[^18F]-radioactivity in skin ([3]; 180 min): 1.60 ± 0.19 % injected dose/g
[^18F]-radioactivity in spleen ([3]; 180 min): 4.07 ± 0.51 % injected dose/g
[^18F]-radioactivity in stomach ([3]; 180 min): 4.37 ± 0.68 % injected dose/g
[^18F]-radioactivity in testes ([3]; 180 min): 1.14 ± 0.11 % injected dose/g
[^18F]-radioactivity in thyroid ([3]; 180 min): 3.91 ± 0.75 % injected dose/g

COc1ccc(OCC[18F])c(CN(C(C)=O)c2cc(F)ccc2Oc2ccccc2)c1 [[^18F]-FEDAA1106, reference compound]
Hipp/Cereb ratio (signal-to-background ratio, hippocampus/cerebellum) [2]: 1.2±0.2
Elimination from mouse brain, 2 min/30 min ratio of brain uptake (% ID/g) ([3]; mice): 2.0
Elimination from mouse brain, 2 min/30 min ratio of brain uptake (% ID/g) ([3]; mice, listed as FEDAA): 2.00

COc1ccc(OCC[18F])c(CN(C(C)=O)c2cccnc2Cc2ccc(F)cc2)c1 [compound 21]
Elimination from mouse brain, 2 min/30 min ratio of brain uptake (% ID/g) ([3]; mice): 4.85
